# From patent US4202877A, “Antidermatomycotic agent” (Kureha Kagaku Kogyo Kabushiki Kaisha, priority 1977, dated 1980)
# What was measured:
# [1] = Antimicrobial activity of synthesized versus extracted substance; details: synthesis method vs extraction method
# [2] = Acute toxicity (LD50, mortality one week after administration, Litchfield-Wilcoxon; autopsy after oral administration); type: in vivo, ICR-JCL female mice; details: for LD50 at 168 h: mouse, in vivo, mice, 10 tested, one week after administration
# From the text: Ortho-methoxycinnamaldehyde was suspended in a mixed sulution of 1 part of Tween (mfd. Atlas Powder Co.) and 2 parts of a physiological salt solution. Commercially available ICR-JCL female mice (with a body weight of 22±1 g) were used for the toxicity tests, in which the mice were divided into groups, one being subjected to the percutaneous administration (p.c.) and the other group subjected to the oral administration (p.o.) and, one week after the administration their mortality was observed.
# [3] = tested on: Staphylococcus aureus; experiment: Antimicrobial spectrum, minimum growth inhibiting concentration (MIC); type: cell-based; details: 72 h, Sabouraud's medium pH 5 to 6, 25° C., 3 days
# Description: (§1) The antimicrobial spectrum was determined using Sabouraud's medium. Three hundred milligrams of o-methoxycinnamaldehyde was dissolved in 15 ml of methanol and diluted to give solutions with different concentrations. An aliquot of 0.1 ml of the solutions was charged into a test tube. Each 10 ml of the sterilized Sabouraud's medium of pH of 5 to 6 was charged into each of the above-mentioned test tube and well mixed with the solution of the present substance. A variety of microbial species were provided and each species was suspended in a physiological salt solution in an amount of 10^5 /ml.
# [4] = tested on: Microsporum canis; experiment: as above; type: cell-based; details: 72 h, Sabouraud's medium pH 5 to 6, 25° C., 3 days
# Description: as §1
# [5] = tested on: Candida albicans; experiment: as above; type: cell-based; details: 72 h, Sabouraud's medium pH 5 to 6, 25° C., 3 days
# Description: as §1
# [6] = tested on: Trichophyton mentagrophytes; experiment: as above; type: cell-based; details: 72 h, Sabouraud's medium pH 5 to 6, 25° C., 3 days
# Description: as §1
# [7] = tested on: Microsporum gypseum; experiment: as above; type: cell-based; details: Nannizzia gypsea, 72 h; Sabouraud's medium pH 5 to 6, 25° C., 3 days
# Description: as §1
# [8] = tested on: Trichophyton rubrum; experiment: as above; type: cell-based; details: 72 h, Sabouraud's medium pH 5 to 6, 25° C., 3 days
# Description: as §1
# [9] = tested on: Aspergillus niger; experiment: as above; type: cell-based; details: 72 h, Sabouraud's medium pH 5 to 6, 25° C., 3 days
# Description: as §1
# [10] = tested on: Cryptococcus neoformans; experiment: as above; type: cell-based; details: 72 h, Sabouraud's medium pH 5 to 6, 25° C., 3 days
# Description: as §1
# [11] = tested on: Aspergillus fumigatus; experiment: as above; type: cell-based; details: 72 h, Sabouraud's medium pH 5 to 6, 25° C., 3 days
# Description: as §1
# [12] = tested on: Escherichia coli; experiment: as above; type: cell-based; details: 72 h, Sabouraud's medium pH 5 to 6, 25° C., 3 days
# Description: as §1
# [13] = Subacute toxicity, daily administration over 3 months; type: in vivo, mice; details: every day over 3 months, oral 100 mg/kg and percutaneous 250 mg/kg, respectively
# Description: Further, in order to determine the subacute toxicity of the present substance, it was administered to mice every day over 3 months via an oral and a percutaneous routes using the dosage of 100 mg/kg and 250 mg/kg, respectively.
# [14] = Solubility; type: physicochemical
# [15] = one week after oral administration
smiles,measurement,setting,value
COc1ccccc1C=CC=O [o-methoxycinnamaldehyde],Antimicrobial activity of substance obtained by synthesis compared with that obtained by extraction,[1],identical in physical properties and antimicrobial activity to that obtained from the extraction method
same,LD50 at 168 h,"[2]; topical or ocular, percutaneous (p.c.)",8670 mg/kg
same,LD50 at 168 h,[2]; oral (p.o.),4430 mg/kg
same,Autopsy findings in appearance and visceral observation,[2]; [15],no specific abnormal finding was obtained in appearance and also in visceral observation
same,Toxic symptom,[2]; [15],no specific toxic sympton was observed
same,MIC,[3],50 µg/mL
same,MIC,[4],6.25 µg/mL
same,MIC,[5],50 µg/mL
same,MIC,[6],12.5 µg/mL
same,MIC,[7],25 µg/mL
same,MIC,[8],12.5 µg/mL
same,MIC,[9],200 µg/mL
same,MIC,[10],12.5 µg/mL
same,MIC,[11],100 µg/mL
same,MIC,[12],60 µg/mL
same,Death or abnormal symptom (subacute toxicity),[13],neither death nor abnormal symptom was observed
same,"Solubility in methanol, ethanol, acetone, benzene and chloroform","[14]; methanol, ethanol, acetone, benzene and chloroform","Soluble in methanol, ethanol, acetone, benzene and chloroform"
same,Solubility in water,[14]; water,insoluble in water
